Source: ChEMBL document CHEMBL1141871, “Binding of amine-substituted N1-benzenesulfonylindoles at human 5-HT6 serotonin receptors” (Bioorg Med Chem Lett, 2005)
pKi: −log10 of the molar value.

biological target: 5-hydroxytryptamine receptor 6 (Homo sapiens, UniProt P50406); assay: Displacement of [3H]LSD from human 5HT6 receptor expressed in HEK293 cells; assay type: cell-based
Sequence (P50406 whole entry): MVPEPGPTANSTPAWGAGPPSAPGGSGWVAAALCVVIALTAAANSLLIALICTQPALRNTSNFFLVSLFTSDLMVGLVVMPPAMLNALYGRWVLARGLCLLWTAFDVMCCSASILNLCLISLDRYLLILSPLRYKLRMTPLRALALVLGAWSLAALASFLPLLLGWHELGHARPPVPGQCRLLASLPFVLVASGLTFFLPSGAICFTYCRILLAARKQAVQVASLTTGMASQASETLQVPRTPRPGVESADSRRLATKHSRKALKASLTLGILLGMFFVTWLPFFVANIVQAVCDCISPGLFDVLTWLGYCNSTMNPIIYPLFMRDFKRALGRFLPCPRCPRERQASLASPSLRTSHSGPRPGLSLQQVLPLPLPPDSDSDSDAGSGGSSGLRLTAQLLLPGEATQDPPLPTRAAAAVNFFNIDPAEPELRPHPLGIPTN

SMILES	pKi
CNc1cc(NC)c2ccn(S(=O)(=O)c3ccccc3)c2c1	7.59
CNc1cccc2c1ccn2S(=O)(=O)c1ccc(N)cc1	7.68
CNc1ccc2ccn(S(=O)(=O)c3ccc(N)cc3)c2c1	8.15
Nc1ccc(S(=O)(=O)n2ccc3c(N4CCNCC4)cccc32)cc1	9.40
CNc1cc(NC)c2ccn(S(=O)(=O)c3ccc(N)cc3)c2c1	8.72
Nc1ccc(S(=O)(=O)n2ccc3c([N+](=O)[O-])cc([N+](=O)[O-])cc32)cc1	6.01
c1cc(N2CCNCC2)c2cc[nH]c2c1	5.57
Nc1ccc(S(=O)(=O)n2ccc3ccccc32)cc1	8.00
